Measurements from patent publication US20240417435A1, “DEFENSIN-DERIVED PEPTIDE WITH ANTIBACTERIAL ACTIVITY ALSO AGAINST MULTI-ANTIBIOTIC-RESISTANT BACTERIA” (priority 2021, published 2024).
In brackets after ≈: the same amount, converted by molar mass. Read-outs that look alike come from different tables or passages of the source. Where a SMILES comes first, the peptide text is derived from it. Bridges are numbered along the chain shown (N, C = ends).

What was measured:
MRSA strain 1 = type: cell-based, Staphylococcus aureus
Procedure: (§1) The antimicrobial activity of peptide γ2 was evaluated versus Pseudomonas aeruginosa ATCC 27853, Escherichia coli ATCC 13762 and Staphylococcus aureus ATCC 6538, and versus multidrug-resistant (MDR) clinical isolates of Methicillin-Resistant Staphylococcus aureus (MRSA), extended-spectrum β-lactamase (ESBL)-producing E. coli, P. aeruginosa and Acinetobacter baumannii complex. The isolates were identified by mass spectrometry using the MALDI (matrix-assisted laser desorption/ionisation) mass spectrometer and the biochemical phenotyping method in a VITEKR 2 bioMérieux system (bioMérieux Italia S.p.a., Bagno a Ripoli, Florence, Italy), according to the manufacturer's instructions. The antibiotic susceptibility profile was evaluated with the VITEKR 2 bioMérieux System. The microorganisms were cultured in broth and agar at 37° C. The media used were BD Brain Heart Infusion broth (BHI) (BD, Franklin Lakes, NJ, USA) and BHI agar (OXOID, Basingstoke, Hampshire, UK), BD Trypticase Soy agar with 5% sheep's blood and MacConkey agar (OXOID, Basingstoke, Hampshire, UK). The isolates were stored frozen at −80° C. in BHI broth supplemented with 10% (v/v) glycerol (Carlo Erba Reagents, Milan, Italy) until use, and the work cultures were activated in the respective broths at 37° C. for 15-18 h.
(§2) Assays of the antibacterial activity of peptide γ2, in both reduced and oxidised form, were conducted against P. aeruginosa ATCC 27853, E. coli ATCC 13762, S. aureus ATCC 6538 and MDR clinical isolates. The strains were cultured under aerobic conditions in BHI broth at 37° C. and incubated with peptide γ2 for 2 hours at 37° C. Various concentrations of peptide were used, ranging from 1 μM to 128 μM. Each test was conducted in triplicate with three independent cultures. The minimum inhibitory concentration (MIC) and the minimum bactericidal concentration (MBC) of the peptide were determined with a modified version of the Clinical and Laboratory Standards Institute broth microdilution assay, using a final inoculum concentration of 10^5 CFU/ml, as previously described (Scudiero O et al., Antimicrob Agents Chemother 2010; 54:2312-22; Scudiero O et al. Antimicrob Ag Chemother 2013; 57:1701-8).
(§3) The MIC is indicated by the concentration interval, which comprise the upper growth limit and the first concentration which could not support visible bacterial growth after incubation. The MBC was defined as the lowest concentration at which no viable colonies were observed. The peptide concentrations were 128.0, 64.0, 32.0, 16.0, 8.0, 4.0, 2.0 and 1 μM. For the time-kill studies against the ATCC and MDR strains, the bacteria were cultured in BHI broth until the late log growth phase at 37° C. The bacterial suspensions, containing about 10^6 CFU/ml (adjusted by the spectrophotometer to OD600 nm), were diluted 1:100 in PBS1× and then incubated at 37° C. with or without the peptide, selected at concentrations corresponding to 1, 2 and 4×MIC (as determined above). At baseline and 1, 2, 3 and 5 hours after incubation, a portion of each sample was harvested, diluted in series in PBS1× and seeded on BHI agar. The plates were incubated for […] at 37° C., and the viable bacteria count was conducted by the CFU method. All the data were expressed as mean±SD of three independent experiments.

MRSA strain 2 = type: cell-based, Staphylococcus aureus
Procedure: as §1, §2, §3

MRSA strain 3 = type: cell-based, Staphylococcus aureus
Procedure: as §1, §2, §3

S. aureus ATCC 6538 [1] = type: cell-based, Staphylococcus aureus
Procedure: as §1, §2, §3

E. coli ATCC 13762 = type: cell-based, Escherichia coli
Procedure: as §1, §2, §3

E. coli ESBL strain 1 = type: cell-based, Escherichia coli
Procedure: as §1, §2, §3

E. coli ESBL strain 2 = type: cell-based, Escherichia coli
Procedure: as §1, §2, §3

P. aeruginosa ATCC 27853 [2] = type: cell-based, Pseudomonas aeruginosa
Procedure: as §1, §2, §3

[3] = test system: P. aeruginosa MDR strain 1; type: cell-based, Pseudomonas aeruginosa
Procedure: as §1, §2, §3

[4] = test system: P. aeruginosa MDR strain 2; type: cell-based, Pseudomonas aeruginosa
Procedure: as §1, §2, §3

[5] = test system: A. baumannii MDR strain 1; type: cell-based, Acinetobacter baumannii complex
Procedure: as §1, §2, §3

[6] = test system: A. baumannii MDR strain 2; type: cell-based, Acinetobacter baumannii complex
Procedure: as §1, §2, §3

S. aureus ATCC 6538 [7] = experiment: SYTOX Green absorption assay (membrane permeabilisation); type: cell-based, Staphylococcus aureus
Procedure: (§4) The effect of peptide γ2 on the membrane integrity of S. aureus ATCC 6538 and P. aeruginosa ATCC 27853 was evaluated by measuring the extent of intracellular accumulation of SYTOX green (Juba M L, et al. Biochim Biophys Acta. 2015; 1848 (5): 1081-91). The cells were harvested halfway through the log phase, washed, and resuspended in 10 mM of phosphate buffer. The final density was adjusted to 5×10^7 CFU/mL. The cells were then treated with peptide γ2 (0.625, 1.25, 2.5, 12.5, 25 μM) in the presence of 200 nM SYTOX green (Invitrogen). The fluorescence increase of SYTOX green, a direct measurement of the degree of membrane permeabilisation, was monitored with a fluorescence spectrophotometer. The excitation and emission wavelengths used were 503 nm and 523 nm respectively. 5

P. aeruginosa ATCC 27853 [8] = experiment: as above; type: cell-based, Pseudomonas aeruginosa
Procedure: as §4

[9] = test system: S. aureus ATCC 6538 biofilm; experiment: Biofilm formation and maturation, crystal violet; type: cell-based, Staphylococcus aureus; conditions: concentrations slightly higher than MIC, dose-dependent, maximum activity at 125 μM
Procedure: (§5) The biofilm formation test for S. aureus ATCC 6538 and P. aeruginosa ATCC 27853 was conducted in 96-well plates, as previously reported (Merritt J H, Kadouri D E, O'Toole G A. Growing and analyzing static biofilms. Curr Protoc Microbiol. 2005; Chapter 1: Unit 1B.1.)
(§6) Briefly, the bacteria from overnight cultures were diluted and grown to 0.5 McFarland. The bacteria were diluted 1:100 and plated in each well containing 100 μL of BHI broth. To evaluate the impact of peptide γ2 on biofilm formation, the medium was supplemented with various concentrations of peptide (2.5, 12.5, 25 and 125 μM) and incubated overnight. To evaluate biofilm maturation, the bacteria of the cultures grown overnight were diluted 1:1000, and 5 μL of said bacterial suspensions was added to each well, containing 100 μL of BHI broth, and left to grow overnight. The medium was then removed and replaced with fresh medium containing various peptide concentrations (2.5, 12.5 and 125 μM). At the end of incubation, the medium was removed; the biofilms were washed twice with PBS and stained with crystal violet (1%) for 30 minutes, then resuspended in 200 μL of ethanol. The negative controls were bacteria incubated with medium only. The positive controls were bacteria incubated with medium supplemented with 0.42 μM gentamicin.

[10] = test system: P. aeruginosa ATCC 27853 biofilm; experiment: Biofilm formation and maturation, crystal violet; type: cell-based, Pseudomonas aeruginosa; conditions: concentrations slightly higher than MIC, dose-dependent, maximum activity at 125 μM
Procedure: as §5, §6

[11] = test system: S. aureus ATCC 6538 biofilm; experiment: Biofilm formation by LIVE/DEAD imaging; type: cell-based, Staphylococcus aureus; conditions: 24 h static culture
Procedure: (§7) The formation of S. aureus ATCC 6538 and P. aeruginosa ATCC 27853 biofilms was also evaluated by imaging. The medium was then supplemented with various peptide concentrations (2.5, 12.5 and 25 μM) and incubated overnight, and the biofilms were stained with a FilmTracer LIVE/DEAD biofilm viability kit (Invitrogen) according to the manufacturer's instructions. The images were acquired with Cell Discoverer 7, Zeiss.

[12] = test system: P. aeruginosa ATCC 27853 biofilm; experiment: Biofilm formation by LIVE/DEAD imaging; type: cell-based, Pseudomonas aeruginosa; conditions: 24 h static culture
Procedure: as §7

A549 cells [13] = experiment: Cell migration assay in Boyden chambers; type: cell-based
Procedure: (§8) Cell migration assays were conducted as previously described (Bifulco K et al., Mol Cancer There 2013; 2:1981-93), using Boyden chambers and polyvinylpyrrolidone-free polycarbonate filters with 8 μm pores inserted between a lower and upper compartment. Briefly, the cell suspension (1×10^5 viable cells/mL of serum-free medium) was seeded in each upper chamber. The lower chambers were filled with DMEM only, DMEM containing 10 nM N-formyl-methionyl-leucylphenylalanine peptide (fMLF), as positive control, or increasing peptide γ2 concentration. Incubation was conducted for 4 h at 37° C. in air humidified with 5% CO2. At the end of the assay, the cells on the lower surface of the filter were fixed with ethanol and stained with haematoxylin, and 10 random fields/filter were counted with a 200× magnification. The extent of cell migration was expressed as a percentage of baseline cell migration evaluated in the absence of chemo-attractants, taken as 100% (CTRL).

HT-1080 cells [14] = experiment: Cell migration assay in Boyden chambers; type: cell-based
Procedure: as §8

HUVEC endothelial cells = experiment: Cell migration assay in Boyden chambers; type: cell-based
Procedure: as §8

[15] = test system: peripheral blood mononuclear cells (PBMC); experiment: Cytokine secretion measurement (ProcartaPlex/Luminex); type: cell-based, human; conditions: PBMCs from healthy donors; 1.25 and 12.5 μM; 18 hours
Source text: Supernatants for cytokine evaluation were harvested from peripheral blood mononuclear cell cultures (PBMCs) and analysed with the Invitrogen ProcartaPlex bead-based immunoassay (Invitrogen, Thermo Fisher Scientific) using the Luminex instrument platform (Luminex 200, Luminex Corporation), according to the manufacturer's instructions. xPONENT 3.1 software (Luminex) was used for acquisition and analysis of the samples.

HT-1080 cells [16] = test system: HT-1080 cells
Procedure: (§9) Parental HT-1080, HUVEC, SH-SY5Y human fibroblasts (HF) and A549 cells from Culture Cell Lines Facility CEINGE Biotecnologie Avanzate s.c.ar.l., Naples, Italy, and HeLa cells (ATCC CCL-2) stored in liquid nitrogen, were thawed by stirring the vials gently for 2 minutes in a water bath at 37° C. […]
(§10) The cells were incubated for 24 hours at 37° C. in 5% CO2 to allow them to grow and form a single layer in the flask. Cells grown to 80-95% confluency were washed with PBS, treated with 3 mL of trypsin-EDTA 1× solution, diluted, counted and seeded (4×10^3 cells/200 μl per well) in 96-well tissue-culture plates for 24 h in triplicate. The reduction in cell proliferation was evaluated with the 3-[4,5-dimethylthiazol-2-yl]-2,5-diphenyltetrazolium bromide (MTT) assay, which measures metabolic changes. […] After incubation, the presence of violet crystals, which normally indicate metabolisation of MTT, was evaluated. […] The specific stain eluted was measured with a spectrophotometer (550 nm). […] The cell inhibition percentage was determined with the following formula:
(§11) % cell inhibition=100−(Absorbance of treated cells/Absorbance of control cells)×100. […]
(§12) The mean percentage cell inhibition values for each cell line at different peptide γ2 concentrations compared with the untreated cells were analysed with One-way ANOVA.

A549 cells [17] = test system: A549 cells
Procedure: as §9, §10, §11, §12

Procedure for HUVEC cells: as §9, §10, §11, §12
Procedure for HeLa cells: as §9, §10, §11, §12
Procedure for human fibroblasts (HF): as §9, §10, §11, §12

CC[C@H](C)[C@@H]1NC(=O)[C@H](CCC(N)=O)NC(=O)[C@H](CCCNC(=N)N)NC(=O)[C@H](CCCNC(=N)N)NC(=O)[C@H](CCCCN)NC(=O)[C@@H]2CCCN2C(=O)[C@H](CC(C)C)NC(=O)[C@@H](NC(C)=O)CSSC[C@@H](C(=O)N[C@@H](CCCCN)C(=O)N[C@@H](CCCCN)C(N)=O)NC(=O)[C@H](CO)NC(=O)[C@H](CCCCN)NC(=O)[C@H](CCCNC(=N)N)NC(=O)CNC(=O)[C@H](CCCNC(=N)N)NC(=O)[C@H]([C@@H](C)O)NC(=O)[C@H](CO)NC(=O)[C@H](CO)NC(=O)[C@H](CCCCN)NC(=O)CNC1=O [Oxidised peptide γ2] (Ac-CLPKRRQIGKSSTRGRKSCKK-NH2; disulfide 1-19 (inferred))
MBC (MRSA strain 1): 2 µM (≈ 4.91 µg/mL) | MIC (MRSA strain 1): 1 µM (≈ 2.46 µg/mL) | MBC (MRSA strain 2): 16 µM (≈ 39.3 µg/mL) | MIC (MRSA strain 2): 2 µM (≈ 4.91 µg/mL) | MBC (MRSA strain 3): 32 µM (≈ 78.6 µg/mL) | MIC (MRSA strain 3): 2 µM (≈ 4.91 µg/mL) | MBC (S. aureus ATCC 6538 [1]): 8 µM (≈ 19.7 µg/mL) | MBC (E. coli ATCC 13762): 1 µM (≈ 2.46 µg/mL) | MIC (E. coli ATCC 13762): 1 µM (≈ 2.46 µg/mL) | MBC (E. coli ESBL strain 1): 2 µM (≈ 4.91 µg/mL) | MIC (E. coli ESBL strain 1): 2 µM (≈ 4.91 µg/mL) | MBC (E. coli ESBL strain 2): 32 µM (≈ 78.6 µg/mL) | MIC (E. coli ESBL strain 2): 1 µM (≈ 2.46 µg/mL) | MBC (P. aeruginosa ATCC 27853 [2]): 4 µM (≈ 9.83 µg/mL) | MBC [3]: 32 µM (≈ 78.6 µg/mL) | MBC [4]: 32 µM (≈ 78.6 µg/mL) | MIC [4]: 1 µM (≈ 2.46 µg/mL) | MBC [5]: 128 µM (≈ 314 µg/mL) | MBC ([6]; MDR strain 2): 4 µM (≈ 9.83 µg/mL) | MIC ([6]; MDR strain 2): 4 µM (≈ 9.83 µg/mL) | MIC ([6]; multidrug-resistant clinical strain 2 of A. baumannii): 4 µM (≈ 9.83 µg/mL)

Ac-CLPKRRQIGKSSTRGRKSCKK-NH2 (not fully specified (bridges); printed as Ac-CLPKRRQIGKSSTRGRKSCKK-NH2; also: oxidised (disulfide) or reduced form, both stated) [peptide γ2]
incubation time at which increased influx of SYTOX Green was evident (S. aureus ATCC 6538 [7]): 40 min | dose at which the peptide already effectively permeabilised the bacteria (S. aureus ATCC 6538 [7]; SYTOX Green, dose-dependent): 1.25 µM | incubation time at which increased influx of SYTOX Green was seen (P. aeruginosa ATCC 27853 [8]): 15 min | dose at which the peptide already effectively permeabilised the bacteria (P. aeruginosa ATCC 27853 [8]; SYTOX Green, dose-dependent): 1.25 µM | biofilm formation [9]: significantly inhibited | biofilm maturation [9]: significantly inhibited | biofilm formation [10]: significantly inhibited | biofilm maturation [10]: significantly inhibited | smallest dose at which inhibition of biofilm formation was already evident [11]: 2.5 µM | smallest dose at which inhibition of biofilm formation was already evident [12]: 2.5 µM | directional migration, % of the baseline cell migration (A549 cells [13]; 50 μM, 4 h): 169% | directional cell migration (A549 cells [13]; 100 μM versus 50 μM): did not further increase directional cell migration | chemotactic effect (A549 cells [13]; low concentrations): slight chemotactic effect | directional migration, % of the baseline cell migration (HT-1080 cells [14]; 50 μM, 4 h): 158% | directional cell migration (HT-1080 cells [14]; 100 μM versus 50 μM): did not further increase directional cell migration | chemotactic effect (HT-1080 cells [14]; low concentrations): slight chemotactic effect | directional cell migration (HUVEC endothelial cells; HUVEC, 100 μM versus 50 μM): did not further increase directional cell migration | chemotactic effect (HUVEC endothelial cells; HUVEC, low concentrations): slight chemotactic effect | directional migration, % of the baseline cell migration (HUVEC endothelial cells; endothelial cells (HUVEC), 50 μM, 4 h): 156% | IL-1 secretion [15]: up-regulated | IL-6 secretion [15]: up-regulated | IL-9 secretion [15]: up-regulated | INF-γ secretion [15]: up-regulated | cell viability (HT-1080 cells [16]): viability remained high | reduction of cell viability (A549 cells [17]): about 20% | cell viability (HeLa cells): viability remained high | cell viability compared with the control cells (HeLa cells; human, HeLa cells, 6 h, 40 µM): 97% | reduction of cell viability (HUVEC cells): about 20% | reduction of cell viability (human fibroblasts (HF)): about 20%
